Values after ≈ are worked out from the molar mass of the structure shown.
How the values were obtained:
[1] = tested on: MDA-MB-231; assay: Growth inhibition of human MDA-MB-231 cells assessed as cell growth at 0.01 uM incubated for 48 hrs by sulforhodamine B assay relative to control; format: functional; details: MDA-MB-231, 48 h, read-out: Activity
[2] = tested on: NCI/ADR-RES; assay: Growth inhibition of human NCI-ADR-RES cells assessed as cell growth at 0.01 uM incubated for 48 hrs by sulforhodamine B assay relative to control; format: functional; details: read-out: Activity
[3] = tested on: ACHN; assay: Growth inhibition of human ACHN cells assessed as cell growth at 0.01 uM incubated for 48 hrs by sulforhodamine B assay relative to control; format: functional; details: read-out: Activity
[4] = tested on: SF-539; assay: Growth inhibition of human SF539 cells assessed as cell growth at 0.01 uM incubated for 48 hrs by sulforhodamine B assay relative to control; format: functional; details: SF-539, 48 h, read-out: Activity
[5] = tested on: OVCAR-8; assay: Growth inhibition of human OVCAR8 cells incubated for 48 hrs by sulforhodamine B assay; format: functional; details: OVCAR-8, 48 h
[6] = tested on: OVCAR-8; assay: Growth inhibition of human OVCAR8 cells assessed as cell growth at 100 uM incubated for 48 hrs by sulforhodamine B assay relative to control; format: functional; details: OVCAR-8, 48 h, read-out: Activity
[7] = tested on: MDA-MB-435; assay: Growth inhibition of human MDA-MB-435 cells assessed as cell growth at 0.01 uM incubated for 48 hrs by sulforhodamine B assay relative to control; format: functional; details: MDA-MB-435, 48 h, read-out: Activity
[8] = target: T1, Albumin (Bos taurus, UniProt P02769); assay: Binding affinity to Bovine serum albumin assessed as fluorescence quenching at 0.1 to 1 uM at […] by fluorescence spectroscopic assay; format: ADME; details: cattle, isolated protein
T1 sequence (P02769 whole entry): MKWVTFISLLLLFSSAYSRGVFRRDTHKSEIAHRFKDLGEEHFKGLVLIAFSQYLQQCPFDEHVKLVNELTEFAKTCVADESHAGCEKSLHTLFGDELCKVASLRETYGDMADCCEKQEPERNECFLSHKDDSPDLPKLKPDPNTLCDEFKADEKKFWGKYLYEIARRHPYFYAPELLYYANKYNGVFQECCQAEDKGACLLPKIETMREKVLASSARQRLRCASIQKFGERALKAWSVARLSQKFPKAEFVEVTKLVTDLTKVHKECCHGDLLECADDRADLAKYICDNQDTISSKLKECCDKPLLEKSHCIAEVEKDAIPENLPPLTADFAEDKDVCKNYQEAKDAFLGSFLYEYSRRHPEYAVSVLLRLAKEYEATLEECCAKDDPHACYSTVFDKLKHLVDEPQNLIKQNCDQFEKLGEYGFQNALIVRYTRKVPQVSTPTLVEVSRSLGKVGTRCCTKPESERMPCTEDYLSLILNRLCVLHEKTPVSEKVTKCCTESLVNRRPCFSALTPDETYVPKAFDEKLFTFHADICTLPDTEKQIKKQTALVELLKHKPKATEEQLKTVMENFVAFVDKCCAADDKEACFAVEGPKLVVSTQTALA

[9] = tested on: HT-29; assay: Growth inhibition of human HT-29 cells assessed as cell growth at 0.1 uM incubated for 48 hrs by sulforhodamine B assay relative to control; format: functional; details: HT-29, 48 h, read-out: Activity
[10] = tested on: K562; assay: Growth inhibition of human K562 cells assessed as cell growth at 0.1 uM incubated for 48 hrs by sulforhodamine B assay relative to control; format: functional; details: K562, 48 h, read-out: Activity
[11] = tested on: OVCAR-8; assay: Growth inhibition of human OVCAR8 cells assessed as cell growth at 1 uM incubated for 48 hrs by sulforhodamine B assay relative to control; format: functional; details: OVCAR-8, 48 h, read-out: Activity
[12] = tested on: NCI-H460; assay: Growth inhibition of human NCI-H460 cells assessed as cell growth at 100 uM incubated for 48 hrs by sulforhodamine B assay relative to control; format: functional; details: NCI-H460, 48 h, read-out: Activity
[13] = tested on: IGROV-1; assay: Growth inhibition of human IGROV1 cells incubated for 48 hrs by sulforhodamine B assay; format: functional; details: IGROV-1, 48 h
[14] = tested on: U-251; assay: Growth inhibition of human U251 cells assessed as cell growth at 100 uM incubated for 48 hrs by sulforhodamine B assay relative to control; format: functional; details: U-251, 48 h, read-out: Activity
[15] = tested on: OVCAR-8; assay: Growth inhibition of human OVCAR8 cells assessed as cell growth at 0.1 uM incubated for 48 hrs by sulforhodamine B assay relative to control; format: functional; details: OVCAR-8, 48 h, read-out: Activity
[16] = tested on: NCI-H522; assay: Growth inhibition of human NCI-H522 cells assessed as cell growth at 0.01 uM incubated for 48 hrs by sulforhodamine B assay relative to control; format: functional; details: NCI-H522, 48 h, read-out: Activity
[17] = tested on: OVCAR-8; assay: Growth inhibition of human OVCAR8 cells assessed as cell growth at 0.01 uM incubated for 48 hrs by sulforhodamine B assay relative to control; format: functional; details: OVCAR-8, 48 h, read-out: Activity
[18] = target: T1, Albumin; assay: Binding affinity to Bovine serum albumin assessed as at 0.10 to 1 uM by UV-Visible spectrophotometric method; format: ADME; details: cattle, isolated protein
[19] = tested on: TK-10; assay: Growth inhibition of human TK10 cells incubated for 48 hrs by sulforhodamine B assay; format: functional; details: TK-10, 48 h
[20] = tested on: OVCAR-3; assay: Growth inhibition of human OVCAR3 cells assessed as cell growth at 100 uM incubated for 48 hrs by sulforhodamine B assay relative to control; format: functional; details: OVCAR-3, 48 h, read-out: Activity
[21] = tested on: SNB-19; assay: Growth inhibition of human SNB19 cells assessed as cell growth at 0.01 uM incubated for 48 hrs by sulforhodamine B assay relative to control; format: functional; details: SNB-19, 48 h, read-out: Activity
[22] = tested on: HepG2; assay: Cytotoxicity against human HepG2 cells assessed as cell viability after 72 hrs by MTT assay; format: functional, cell-based; details: HepG2, 72 h
[23] = target: T1, Albumin; assay: Binding affinity to Bovine serum albumin assessed as fluorescence quenching at […] by fluorescence spectroscopic assay; format: ADME; details: cattle, isolated protein
[24] = tested on: SN12C; assay: Growth inhibition of human SN12C cells assessed as cell growth at 0.1 uM incubated for 48 hrs by sulforhodamine B assay relative to control; format: functional; details: read-out: Activity
[25] = tested on: SN12C; assay: Growth inhibition of human SN12C cells assessed as cell growth at 100 uM incubated for 48 hrs by sulforhodamine B assay relative to control; format: functional; details: read-out: Activity
[26] = tested on: SN12C; assay: Growth inhibition of human SN12C cells incubated for 48 hrs by sulforhodamine B assay; format: functional
[27] = tested on: LNCaP; assay: Cytotoxicity against human LNCAP cells assessed as cell viability after 72 hrs by MTT assay; format: functional, cell-based
[28] = tested on: SN12C; assay: Growth inhibition of human SN12C cells assessed as cell growth at 0.01 uM incubated for 48 hrs by sulforhodamine B assay relative to control; format: functional; details: read-out: Activity
[29] = tested on: MCF7; assay: Cytotoxicity against human MCF7 cells assessed as cell viability after 72 hrs by MTT assay; format: functional, cell-based; details: MCF7, 72 h
[30] = tested on: SN12C; assay: Growth inhibition of human SN12C cells assessed as cell growth at 1 uM incubated for 48 hrs by sulforhodamine B assay relative to control; format: functional; details: read-out: Activity
[31] = read-out: LC50 (the source's name)
[32] = read-out: pLC50 (the source's name) (converted)

## c1ccc2[nH]c(-c3ccc(-c4nccc5c4[nH]c4ccccc45)cc3)nc2c1
[1]
  growth at 0.01 µM: 90%
[2]
  growth at 0.01 µM: 99%
[3]
  growth at 0.01 µM: 99%
[4]
  growth at 0.01 µM: 96%
[5]
  GI50: 3.31 µM
[5]; [31]
  CC50: > 1 µM
[5]; read-out: pLC50 (converted)
  CC50: > 100 µM
[5]; read-out: pTGI (converted)
  TGI: 13.5 µM
[6]
  growth at 100 µM: 28%
[7]
  growth at 0.01 µM: 93%
[8]
  Activity: Active
[9]
  growth at 0.1 µM: 98%
[10]
  growth at 0.1 µM: 108%
[11]
  growth at 1 µM: 99%
[12]
  growth at 100 µM: 38%
[13]; read-out: GI50
  GI50: 4.73 µM
[13]; [31]
  CC50: > 1 µM
[13]; read-out: pGI50 (converted)
  GI50: 4.68 µM
[13]; [32]
  CC50: > 100 µM
[13]; read-out: pTGI (converted)
  TGI: 22.4 µM
[14]
  growth at 100 µM: 75%
[15]
  growth at 0.1 µM: 103%
[16]
  growth at 0.01 µM: 91%
[17]
  growth at 0.01 µM: 100%
[18]
  Activity: Active
[19]; read-out: GI50
  GI50: 2.07 µM
[19]; [31]
  CC50: 1.08 µM
[19]; read-out: TGI
  TGI: 4.59 µM
[19]; read-out: pGI50 (converted)
  GI50: 2.09 µM
[19]; [32]
  CC50: 10.7 µM
[19]; read-out: pTGI (converted)
  TGI: 4.57 µM
[20]
  growth at 100 µM: 58%
[21]
  growth at 0.01 µM: 91%

## c1ccc2c3c([nH]c2c1)C(c1ccc(C2NCCc4c2[nH]c2ccccc42)cc1)NCC3 (racemic)
[22]
  IC50: 4.43 µg/mL (≈ 10.6 µM)
[1]
  growth at 0.01 µM: 97%
[3]
  growth at 0.01 µM: 92%
[23]
  Activity: Dose-dependent effect
[4]
  growth at 0.01 µM: 93%
[7]
  growth at 0.01 µM: 95%
[24]
  growth at 0.1 µM: 95%
[25]
  growth at 100 µM: -93%
[9]
  growth at 0.1 µM: 103%
[26]; read-out: GI50
  GI50: 1.47 µM
[26]; [31]
  CC50: 6.31 µM
[26]; read-out: TGI
  TGI: 3.05 µM
[26]; read-out: pGI50 (converted)
  GI50: 1.48 µM
[26]; [32]
  CC50: 6.31 µM
[26]; read-out: pTGI (converted)
  TGI: 3.02 µM
[27]
  IC50: 5.52 µg/mL (≈ 13.2 µM)
[10]
  growth at 0.1 µM: 114%
[12]
  growth at 100 µM: 85%
[13]; read-out: GI50
  GI50: 1.34 µM
[13]; [31]
  CC50: 5.99 µM
[13]; read-out: TGI
  TGI: 2.85 µM
[13]; read-out: pGI50 (converted)
  GI50: 1.35 µM
[13]; [32]
  CC50: 6.03 µM
[13]; read-out: pTGI (converted)
  TGI: 2.82 µM
[14]
  growth at 100 µM: 92%
[16]
  growth at 0.01 µM: 104%
[17]
  growth at 0.01 µM: 101%
[28]
  growth at 0.01 µM: 96%
[29]
  IC50: 3.34 µg/mL (≈ 7.98 µM)
[18]
  Activity: Active
[30]
  growth at 1 µM: 77%
[19]; read-out: GI50
  GI50: 1.98 µM
[19]; [31]
  CC50: 8.44 µM
[19]; read-out: TGI
  TGI: 4.09 µM
[19]; read-out: pGI50 (converted)
  GI50: 2 µM
[19]; [32]
  CC50: 8.51 µM
[19]; read-out: pTGI (converted)
  TGI: 4.07 µM
[20]
  growth at 100 µM: 82%
[21]
  growth at 0.01 µM: 97%

From ChEMBL document CHEMBL4004838, “Design and synthesis of novel phenyl -1, 4-beta-carboline-hybrid molecules as potential anticancer agents” (Eur J Med Chem, 2017)
